Data reported in patent publication US8754132B2 (The Board of Trustees of the University of Illinois, priority 2010, dated 2014).
Values joined by “and” are separate entries in the source; they are usually repeats but may differ in a detail not shown here. Equal entries are not always repeated. Structures can show the parent of a compound that is named as a salt. Where two headings read alike, the source gives them in different places.

Assays:
[1] = molecular target: T1, human 5-HT(2C) (INI) receptor (Homo sapiens, UniProt P28335); test: Calcium flux assay, stably transfected HEK-293 cells, 5-HT2C; assay type: cell-based; conditions: for Emax 2C/2A / Emax 2C/2B: Emax ratio; for 5-HT2C % Max ± SEM: percent of maximal activation by 5-HT
T1 construct: expressed in transfected cells
T1 sequence (P28335 33-458): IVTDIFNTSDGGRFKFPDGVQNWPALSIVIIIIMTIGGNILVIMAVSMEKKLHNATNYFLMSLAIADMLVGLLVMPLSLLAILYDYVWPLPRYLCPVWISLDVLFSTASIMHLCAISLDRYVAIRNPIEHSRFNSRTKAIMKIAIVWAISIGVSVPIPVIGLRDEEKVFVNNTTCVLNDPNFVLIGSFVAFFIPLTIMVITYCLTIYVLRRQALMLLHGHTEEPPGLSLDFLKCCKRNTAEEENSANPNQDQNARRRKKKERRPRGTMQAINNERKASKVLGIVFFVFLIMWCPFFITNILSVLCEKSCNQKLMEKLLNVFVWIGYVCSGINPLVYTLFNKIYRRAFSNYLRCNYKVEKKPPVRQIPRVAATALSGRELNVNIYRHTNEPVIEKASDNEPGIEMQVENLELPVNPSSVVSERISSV

5-HT(2A) receptor [2] = molecular target: T2, 5-HT(2A) receptor (Homo sapiens, UniProt P28223); test: cell-based; assay type: cell-based; parameters: expressed in transfected cells; conditions: for 5-HT2A % Max ± SEM: percent of maximal activation by 5-HT, activation at 10 μM for compounds without EC50 value
5-HT(2B) receptor [3] = molecular target: T3, 5-HT(2B) receptor (Homo sapiens, UniProt P41595); test: Calcium flux assay, stably transfected HEK-293 cells, 5-HT2B; assay type: cell-based; parameters: expressed in transfected cells; conditions: for 5-HT2B % Max ± SEM: percent of maximal activation by 5-HT, activation at 10 μM for compounds without EC50 value
[4] = tested on: PCP-disrupted PPI in mice; test: Prepulse inhibition (PPI) animal study, PCP-disrupted PPI; conditions: PCP 6 mg/kg i.p.
5-HT(2B) receptor [5] = molecular target: T3, 5-HT(2B) receptor; test: 5-HT(2B) antagonism, shift of 5-HT concentration curve in calcium flux experiments, Schild analysis
5-HT(2A) receptor [6] = molecular target: T2, 5-HT(2A) receptor; test: Modulation of 5-HT(2) family receptors, Table 1, 2A Receptor; assay type: cell-based; conditions: for 2A Receptor ED50: NA = No activity
5-HT(2B) receptor [7] = molecular target: T3, 5-HT(2B) receptor; test: Modulation of 5-HT(2) family receptors, Table 1, 2B Receptor; assay type: cell-based; conditions: for 2B Receptor ED50: NA = No activity
5-HT(2C) receptor = molecular target: T4, 5-HT(2C) receptor (Homo sapiens, UniProt P28335); test: Modulation of 5-HT(2) family receptors, Table 1, 2C Receptor; assay type: cell-based
T4 sequence (P28335 33-458): T1 sequence (P28335 33-458)

[8] = 10-60 mg/kg, behavioral assay, reference (15); cited from earlier work
CYP2C9 = CYP2C9 (Homo sapiens, UniProt P11712); test: Recombinant CYP inhibition, CYP2C9; assay type: in vitro ADME; conditions: recombinant CYP2C9, probe tolbutamide, substrate tolbutamide, recombinant enzyme, read-out: % Inhibition at 10 μM, CYP 2C9
CYP2D6 = CYP2D6 (Homo sapiens, UniProt P10635); test: Recombinant CYP inhibition, CYP2D6; assay type: in vitro ADME; conditions: recombinant CYP2D6, probe dextromethorphan, substrate dextromethorphan, recombinant enzyme, read-out: % Inhibition at 10 μM, CYP 2D6
CYP3A4 = CYP3A4 (Homo sapiens, UniProt P08684); test: Recombinant CYP inhibition, CYP3A4; assay type: in vitro ADME; conditions: recombinant enzyme, read-out: % Inhibition at 10 μM, CYP 3A4
[9] = Stability in liver microsomes, human; assay type: in vitro ADME; conditions: NADPH, 37° C.
[10] = Stability in liver microsomes, rat; assay type: in vitro ADME; conditions: NADPH, 37° C.
Experimental: Stability in Liver Microsomes. For each sample to be investigated, the following was mixed: microsomes (50 μL, 0.5 mg/mL), MgCl2 solution (50 μL, 50 mM), phosphate buffer (250 μL, 100 mM), water (95 μL), test compound (+)-12 (5 μL, 200 μM). Verapamil was tested as a positive control. The reaction was performed at 37° C. and initiated by the addition of NADPH (50 μL, 10 mM) or, for the negative control, by the addition of water (50 μL). Aliquots of 50 μL were taken form the solution after 0, 15, 30, 45, and 60 minutes and the reaction stopped by the addition of 150 μL cold methanol to the aliquot. The samples were centrifuged (16000 rpm, 10 min). 100 μL supernatant was used for LC-MS-MS investigation. All incubations were performed in duplicate. Separation of the sample components was performed on a Waters ACQUITY UPLC C18 (2.1 mm×50 mm) column, using mobile phase mixtures between 0.1% formic acid in MeCN and 0.1% formic acid in water (elution rate 0.5 mL/min, column temperature 25° C.). […] The in vitro intrinsic clearance (in vitro CLint) was calculated according to: in vitro CLint=(0.693/t1/2)×(volume of incubation (μL)/amount of proteins (mg)).

[11] = 5-HT2C EC50 ± SEM, Table 2, second section
[12] = Table 2, second section, EC50 ratio
[13] = Table 2, second section, read-out: 5-HT2C EC50 ± SEM

T3 sequence (P41595 whole entry): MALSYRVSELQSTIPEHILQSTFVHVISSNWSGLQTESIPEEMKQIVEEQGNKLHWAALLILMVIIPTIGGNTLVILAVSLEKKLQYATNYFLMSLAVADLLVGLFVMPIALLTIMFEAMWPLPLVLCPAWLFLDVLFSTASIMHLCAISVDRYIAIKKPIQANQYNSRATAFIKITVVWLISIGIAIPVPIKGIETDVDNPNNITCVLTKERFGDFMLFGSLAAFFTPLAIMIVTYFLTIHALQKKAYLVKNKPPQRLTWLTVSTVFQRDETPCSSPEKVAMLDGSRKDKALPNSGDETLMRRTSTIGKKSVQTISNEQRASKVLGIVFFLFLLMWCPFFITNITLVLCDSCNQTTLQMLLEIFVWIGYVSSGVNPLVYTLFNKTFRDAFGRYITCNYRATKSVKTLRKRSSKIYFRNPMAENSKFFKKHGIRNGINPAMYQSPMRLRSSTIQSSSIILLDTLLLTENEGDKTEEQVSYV
T2 sequence (P28223 whole entry): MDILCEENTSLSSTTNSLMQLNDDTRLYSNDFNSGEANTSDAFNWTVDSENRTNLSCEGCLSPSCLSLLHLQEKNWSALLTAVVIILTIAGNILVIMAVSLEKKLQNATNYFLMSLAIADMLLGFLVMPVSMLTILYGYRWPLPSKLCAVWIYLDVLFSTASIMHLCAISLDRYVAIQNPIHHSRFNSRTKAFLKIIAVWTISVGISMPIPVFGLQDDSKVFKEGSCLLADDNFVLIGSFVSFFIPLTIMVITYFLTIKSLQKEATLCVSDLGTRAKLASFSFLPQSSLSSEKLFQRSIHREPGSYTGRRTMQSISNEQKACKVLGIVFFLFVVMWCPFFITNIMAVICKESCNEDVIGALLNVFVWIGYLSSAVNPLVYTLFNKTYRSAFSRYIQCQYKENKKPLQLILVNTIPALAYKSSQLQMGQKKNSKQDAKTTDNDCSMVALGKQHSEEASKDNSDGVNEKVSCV
CYP3A4, sequence (P08684 whole entry): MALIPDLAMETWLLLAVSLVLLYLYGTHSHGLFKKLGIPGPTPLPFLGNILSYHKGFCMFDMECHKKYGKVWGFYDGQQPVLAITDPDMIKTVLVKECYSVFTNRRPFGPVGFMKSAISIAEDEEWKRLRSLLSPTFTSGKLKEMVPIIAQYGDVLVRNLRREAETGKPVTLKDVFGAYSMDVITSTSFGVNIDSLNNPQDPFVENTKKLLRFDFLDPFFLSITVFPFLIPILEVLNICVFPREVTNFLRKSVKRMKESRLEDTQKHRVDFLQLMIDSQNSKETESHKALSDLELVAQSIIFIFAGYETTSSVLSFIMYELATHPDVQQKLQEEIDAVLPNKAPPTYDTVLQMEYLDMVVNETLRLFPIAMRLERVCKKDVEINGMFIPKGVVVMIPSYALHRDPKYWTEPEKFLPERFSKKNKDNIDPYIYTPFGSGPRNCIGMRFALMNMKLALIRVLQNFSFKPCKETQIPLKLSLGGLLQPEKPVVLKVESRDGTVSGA
CYP2C9, sequence (P11712 whole entry): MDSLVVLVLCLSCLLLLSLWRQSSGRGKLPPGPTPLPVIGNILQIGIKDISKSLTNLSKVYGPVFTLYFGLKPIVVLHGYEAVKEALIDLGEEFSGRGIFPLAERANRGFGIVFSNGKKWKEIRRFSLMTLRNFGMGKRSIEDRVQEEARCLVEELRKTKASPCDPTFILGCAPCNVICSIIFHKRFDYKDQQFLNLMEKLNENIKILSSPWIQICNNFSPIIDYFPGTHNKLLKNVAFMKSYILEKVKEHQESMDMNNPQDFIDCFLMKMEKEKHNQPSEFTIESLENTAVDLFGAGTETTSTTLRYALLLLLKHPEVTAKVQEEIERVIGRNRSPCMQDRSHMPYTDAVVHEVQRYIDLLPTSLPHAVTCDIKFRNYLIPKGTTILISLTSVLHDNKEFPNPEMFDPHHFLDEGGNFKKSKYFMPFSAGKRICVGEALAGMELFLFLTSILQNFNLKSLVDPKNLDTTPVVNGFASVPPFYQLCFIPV
CYP2D6, sequence (P10635 whole entry): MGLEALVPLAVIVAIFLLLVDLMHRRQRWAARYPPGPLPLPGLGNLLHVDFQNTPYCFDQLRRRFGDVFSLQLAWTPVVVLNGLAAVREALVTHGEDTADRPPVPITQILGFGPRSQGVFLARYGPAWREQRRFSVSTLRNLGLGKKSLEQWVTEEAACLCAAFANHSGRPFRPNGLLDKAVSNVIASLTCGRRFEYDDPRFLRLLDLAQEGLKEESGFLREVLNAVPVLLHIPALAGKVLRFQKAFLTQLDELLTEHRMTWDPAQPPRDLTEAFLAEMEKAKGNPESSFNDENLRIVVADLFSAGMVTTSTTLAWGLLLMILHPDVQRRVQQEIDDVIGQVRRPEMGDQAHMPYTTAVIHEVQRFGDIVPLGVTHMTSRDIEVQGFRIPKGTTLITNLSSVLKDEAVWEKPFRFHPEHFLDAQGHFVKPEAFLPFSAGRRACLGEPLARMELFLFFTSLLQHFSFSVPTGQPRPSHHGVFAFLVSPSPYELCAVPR

## NC[C@@H]1C[C@H]1c1cc(O)ccc1OCC1CC1 (relative stereo) [Compound 18, trans-[2-(2-Cyclopropylmethyloxy-5-hydroxyphenyl)cyclopropyl]methylamine Hydrochloride]
[1]; Table 2, first section
  Emax 2C/2A: 9.4
  Emax 2C/2B: 12

## NC[C@H]1C[C@@H]1c1cc(O)ccc1OCC1CC1 [(+)-18, (+)-trans-(S,S)-[2-(2-Cyclopropylmethyloxy-5-hydroxyphenyl)cyclopropyl]methylamine Hydrochloride]
[1]; [11]
  EC50: 0.0093 µM
[1]; [12]
  Selectivity 2A/2C: 40
[1]; Table 2, second section
  Emax 2C/2A: 3.9
  Emax 2C/2B: 11
  5-HT2C % Max ± SEM: 70% ±
5-HT(2A) receptor [2]; 5-HT2A EC50 ± SEM, Table 2, second section (second screening campaign), NA: Emax ≦ 12%
  EC50: 0.372 µM
5-HT(2A) receptor [2]; Table 2, second section
  5-HT2A % Max ± SEM: 18% ±
5-HT(2B) receptor [3]; Table 2, second section
  5-HT2B % Max ± SEM: 6% ±
[4]; 10 mg/kg
  normalization of PCP-disrupted PPI: able to normalize PCP-disrupted PPI
5-HT(2B) receptor [5]; 5-HT(2B) antagonism against 5-HT, calcium flux, n=3
  pA2 (±SEM), Schild analysis: 5.79±0.07

## NCCc1c[nH]c2ccc(O)cc12 [Compound 5-HT, 5-Hydroxytryptamine, reference compound]
5-HT(2A) receptor [2]; Table 2, first section
  5-HT2A % Max ± SEM: 100%
5-HT(2A) receptor [2]; Table 2, second section
  5-HT2A % Max ± SEM: 100% ±

## NC[C@@H]1C[C@H]1c1cc(F)ccc1OCC1CC1 (relative stereo) [Compound 12, trans-[2-(2-Cyclopropylmethyloxy-5-fluorophenyl)cyclopropyl]methylamine Hydrochloride]
[1]; Table 2, first section
  Emax 2C/2A: 6.2
  Emax 2C/2B: 38
5-HT(2A) receptor [2]; functional assays
  activation of the 5-HT(2A) receptor (in words): not to activate
5-HT(2B) receptor [3]; functional assays
  activation of the 5-HT(2B) receptor (in words): not to activate

## trans-[2-(2-cyclopropylmethyloxy-5-fluorophenyl)cyclopropyl]-methylamine hydrochloride [(−)-12]
[1]; Table 2, second section
  Emax 2C/2A: >>
  Emax 2C/2B: 8.0
  5-HT2C % Max ± SEM: 35% ±
[1]; [13]
  EC50: 0.918 µM
[1]; read-out: EC50 in the 5-HT(2C) assay, running text b178
  EC50: ~2.4 µM
5-HT(2A) receptor [2]; Table 2, second section
  5-HT2A % Max ± SEM: 0% ±
5-HT(2B) receptor [3]; Table 2, second section
  5-HT2B % Max ± SEM: 4% ±

## CC(C)c1ccc(CCC2CC2)c(C2CC2CN)c1.Cl (stereo not shown) [Compound 53]
5-HT(2A) receptor [6]
  2A Receptor Emax: 92
5-HT(2B) receptor [7]
  2B Receptor Emax: 66
5-HT(2C) receptor
  2C Receptor Emax: 93

## Cc1cccc(C2CC2CN)c1 (stereo not shown) [Compound 1]
[8]
  antidepressant-like effects: moderate antidepressant-like effects

## C[C@H]1CNCCc2ccc(Cl)cc21 [2 (Lorcaserin), Lorcaserin, reference compound]
[1]
  agonist potency at the 5-HT(2C) receptor (in words): low nM potency
[1]; Table 2, first section
  5-HT2C % Max ± SEM: 99% ±
[1]; Table 2, second section
  5-HT2C % Max ± SEM: 94% ±
5-HT(2A) receptor [2]; Table 2, first section
  5-HT2A % Max ± SEM: 24% ±
5-HT(2A) receptor [2]; Table 2, second section
  5-HT2A % Max ± SEM: 31% ±
5-HT(2B) receptor [3]; Table 2, first section
  5-HT2B % Max ± SEM: 93% ±
5-HT(2B) receptor [3]; Table 2, second section
  5-HT2B % Max ± SEM: 86% ±

## Cl.NC[C@@H]1C[C@H]1c1cc(O)ccc1OCC1CC1 (racemic) [Compound 18, trans-[2-(2-Cyclopropylmethyloxy-5-hydroxyphenyl)cyclopropyl]methylamine Hydrochloride]
[1]; 5-HT2C EC50 ± SEM, Table 2, first section
  EC50: 0.019 µM
[1]; Table 2, first section
  5-HT2C % Max ± SEM: 68% ±
5-HT(2A) receptor [2]; Table 2, first section
  5-HT2A % Max ± SEM: 7% ±
5-HT(2B) receptor [3]; Table 2, first section
  5-HT2B % Max ± SEM: 6% ±

## NC[C@H]1C[C@@H]1c1cc(F)ccc1OCC1CC1 [(+)-12, (+)-trans-(S,S)-[2-(2-Cyclopropylmethyloxy-5-fluorophenyl)cyclopropyl]methylamine Hydrochloride]
[1]; [12]
  Selectivity 2A/2C: 42
  Selectivity 2B/2C: 14
[1]; Table 2, second section
  Emax 2C/2A: 2.5
  Emax 2C/2B: 3.4
  5-HT2C % Max ± SEM: 71% ±
CYP2C9
  inhibition at 20 min, 10 µM: 19.6%
CYP2D6
  inhibition at 20 min, 10 µM: 27%
CYP3A4; recombinant CYP3A4, probe midazolam, substrate midazolam
  inhibition at 5 min, 10 µM: 21.7%
CYP3A4; recombinant CYP3A4, probe testosterone, substrate testosterone
  inhibition at 5 min, 10 µM: 25.1%
[9]
  Microsomal stability (% remaining), human: 90.50%
[10]
  Microsomal stability (% remaining), rat: 66.03%
5-HT(2A) receptor [2]; Table 2, second section
  5-HT2A % Max ± SEM: 29% ±
5-HT(2B) receptor [3]; Table 2, second section
  5-HT2B % Max ± SEM: 21% ±
[4]; 5 mg/kg dose level
  normalization of PCP-disrupted PPI: still effective
[4]; 10 mg/kg
  normalization of PCP-disrupted PPI: able to normalize PCP-disrupted PPI

## Cc1ccc(CCC2CC2)c(C2CC2CN)c1.Cl (stereo not shown) [Compound 52]
5-HT(2A) receptor [6]
  2A Receptor Emax: 47
5-HT(2B) receptor [7]
  2B Receptor Emax: 35
5-HT(2C) receptor
  2C Receptor Emax: 98

## Nc1ccc(S(=O)(=O)Nc2ccnn2-c2ccccc2)cc1 [sulfaphenazole, reference compound]
CYP2C9
  inhibition at 20 min, 10 µM: 94.7%

## NCC1CC1c1cc(O)ccc1OCC1CC1 (single isomer, unassigned; (-)) [(−)-18]
[1]; [11]
  EC50: 0.361 µM
[1]; Table 2, second section
  Emax 2C/2A: 19
  Emax 2C/2B: >>
  5-HT2C % Max ± SEM: 51% ±
5-HT(2A) receptor [2]; Table 2, second section
  5-HT2A % Max ± SEM: 3% ±
5-HT(2B) receptor [3]; Table 2, second section
  5-HT2B % Max ± SEM: 0% ±

## Cl.NCC1CC1c1cc(Br)ccc1CCC1CC1 (stereo not shown) [Compound 51]
5-HT(2A) receptor [6]
  2A Receptor ED50: no activity
5-HT(2B) receptor [7]
  2B Receptor ED50: no activity
5-HT(2C) receptor
  2C Receptor Emax: 92

## Cl.NC[C@@H]1C[C@H]1c1cc(F)ccc1OCC1CC1 (racemic) [Compound 12, trans-[2-(2-Cyclopropylmethyloxy-5-fluorophenyl)cyclopropyl]methylamine Hydrochloride]
[1]; EC50 at the 5-HT(2C) receptor, running text b178, functional assays
  EC50: 0.254 µM
[1]; Table 2, first section, EC50 ratio
  Selectivity 2A/2C: 77
[1]; Table 2, first section
  5-HT2C % Max ± SEM: 68% ±
[1]; Table 2, first section, read-out: 5-HT2C EC50 ± SEM
  EC50: 0.0099 µM
5-HT(2A) receptor [2]; Table 2, first section
  5-HT2A % Max ± SEM: 11% ±
5-HT(2A) receptor [2]; read-out: 5-HT2A EC50 ± SEM
  EC50: 0.761 µM
5-HT(2B) receptor [3]; Table 2, first section
  5-HT2B % Max ± SEM: 2% ±

## Cl.NCC1CC1c1ccccc1CCC1CC1 (stereo not shown) [Compound 50]
5-HT(2A) receptor [6]
  2A Receptor ED50: no activity
5-HT(2B) receptor [7]
  2B Receptor ED50: no activity
5-HT(2C) receptor
  2C Receptor Emax: 35 and 60

## NCC1CC1c1cc(F)ccc1OCC1CC1 [(+)-12, (+)-trans-(S,S)-[2-(2-Cyclopropylmethyloxy-5-fluorophenyl)cyclopropyl]methylamine Hydrochloride]
[1]; [13]
  EC50: 0.021 µM
5-HT(2A) receptor [2]; Table 2, second section (second screening campaign), NA: Emax ≦ 12%, read-out: 5-HT2A EC50 ± SEM
  EC50: 0.894 µM
5-HT(2B) receptor [3]; Table 2, second section, NA: Emax ≦ 12%, read-out: 5-HT2B EC50 ± SEM
  EC50: 0.289 µM
5-HT(2B) receptor [5]
  Kb: 3.16 µM
